How the values were obtained:
[1] = Stability as foam additive in polyol/amine catalyst/cyclopentane mixture (fluoride ion release); type: physicochemical; details: for change of fluoride levels over time (reaction with polyol/amine catalyst mixture): over 48 hours at room temperature; for [F—] at 48 hours / [F—] at time 0: polyol/amine catalyst/foam additive/cyclopentane mixture; for [F—] at 48 hours: aged at room temperature; for [F—] at time 0: room temperature
Protocol: The stability of Example 3 (perfluorodiethylsulfone) was measured in a standard polyol/amine catalyst/foam blowing agent mixture commonly used in making polyurethane foams. The stability was compared to CE9 (PF-5060) and CE10 (FA-188), both of which are available from 3M Company, St. Paul, Minn., US. Stability was determined by measuring the increase in fluoride ion levels over time after mixing all the components at room temperature. An increase in fluoride ion levels is a measure of the extent to which the fluorinated foam additive is reacting with the polyol/amine catalyst mixture to release fluoride ion. Fluoride ion measurements were made using a ThermoScientific ORION DUAL STAR pH/ISE channel meter and VWR 14002-788 F Fluoride specific electrode. The electrode was calibrated using fluoride standards of 1, 2, 10, and 100 ppm fluoride ion concentration in aqueous TISAB II (Total Ionic Strength Adjustment Buffer) buffer solution.
The Polyol/Amine Catalyst/Blowing Agent/Foam Additive sample mixtures were prepared by mixing ELASTAPOR P 17655R Resin (a polyol/amine catalyst blend obtained from BASF, Ludwigshafen, Germany), cyclopentane (a common foam blowing agent), and Example 3, CE9, or CE10 as a foam additive. Using a SARTORIUS A200S balance, the cyclopentane/foam additive mixtures were made first by mixing 25.5 grams of cyclopentane with 2.3 grams of foam additive. Then 43.1 grams of the ELASTAPOR polyol containing the amine catalyst was transferred to a wide mouth 4 oz glass jar and 7 g of the cyclopentane/foam additive mixture was added and shaken.
After the sample mixtures were thoroughly shaken and mixed, an aliquot was removed and an initial fluoride concentration was determined at time 0 hr. Analytical samples were prepared by diluting 1 g of the sample mixture with 1 g of isopropyl alcohol and 0.5 mL of 1N sulfuric acid in a polypropylene centrifuge tube and mixing thoroughly. The sample was further diluted with 1 g of water and mixed again. From this mixture a 1 mL aliquot was taken and mixed with 1 mL of TISAB II solution in a fresh polypropylene centrifuge tube and mixed thoroughly prior to fluoride ion measurement. An average of 3 independent fluoride measurements were used to determine the fluoride concentration of each sample using the fluoride specific electrode and meter described above. Similar measurements were taken every 24 hours. The results are summarized in Table 8 below after 0 and 48 hours.

male Sprague Dawley rats = assay: Inhalation toxicity in rats, single 4-hour whole body exposure; type: in vivo, rat
Protocol: The inhalation toxicity potential of Example 3 was evaluated in male Sprague Dawley rats after a single 4-hour whole body exposure at atmospheric concentrations of 10,000 ppm (v/v). The test material (purity 98.84%) was administered as received at an appropriate volume to a 40-L test chamber containing 3 rats. The test material vaporized upon addition to the chamber. The air within the chamber was regenerated at appropriate intervals to maintain an 18% oxygen concentration. Three control animals were placed in another chamber filled with ambient air. The day of exposure was designated Day 0. Clinical observations were recorded during the exposure period and for 14 days after exposure. Body weights were recorded prior to exposure (Day 0), on Day 1, Day 2, and 14 days after exposure for both the test material-treated and control animals.

[2] = Hydrolytic stability: free fluoride in water phase after aging with deionized water; type: physicochemical
Protocol: Duplicate samples of Example 3 and CE1 were tested for hydrolytic stability at 150° C. by placing 10 grams of test material along with 10 grams deionized water in a clean, 40 mL Monel pressure vessel, which was sealed and placed in a convection oven set at 150° C. for 24 hours. After aging, the fluoride concentrations were determined by mixing 1 mL of the water phase from each sample with 1 mL of TISAB II (Total Ionic Strength Buffer) buffer solution. Fluoride ion concentrations were then measured using an ORION EA 940 meter with an ORION 9609BNWB Fluoride-Ion Specific Electrode (ISE) (Thermo Fisher Scientific, Minneapolis, Minn., US). ORION IONPLUS Fluoride standards (1, 2, 10 and 100 ppm Fluoride) were used for the calibration of the meter.
The hydrolytic stability values of Example 3 and CE1 are reported as average parts per million by weight (ppmw) of free fluoride in water in Table 4. Higher levels of free fluoride ion concentration correspond to reduced stability.

[3] = Thermal stability: fluoride ion after aging neat in Monel pressure vessel; type: physicochemical
Protocol: The thermal stability of Example 3 and CE1 was determined by placing duplicate 10-gram samples in clean, 40 mL Monel pressure vessels and sealing tightly. The pressure vessels were then placed in a convection oven set at 100° C. for 24 hours. After aging, each sample was mixed with a known weight of ultrapure (18.2 MΩ) water, agitated in a mechanical shaker at high speed for 15 minutes and finally centrifuged to separate the two phases. Fluoride ion concentrations were subsequently measured in the water phase as previously described. This was then followed by another experiment at 150° C. using the same method.

| SMILES | change of fluoride levels over time (reaction with polyol/amine catalyst mixture) [1] | [F—] at 48 hours [1] [ppm] | [F—] at time 0 [1] [ppm] | mortality and clinical observations (male Sprague Dawley rats; 10,000 ppm (v/v), during 4-hour exposure and throughout 14-day study) | body weight, condition and gross necropsy (male Sprague Dawley rats; 10,000 ppm (v/v), single 4-hour exposure, 14-day study) | approximate inhalation 4-hour LC50 (male Sprague Dawley rats; male Sprague Dawley rats, single 4-hour whole body exposure at 10,000 ppm (v/v), 14 days observation) | Average F concentration after 24 hours at 150° C. with DI H2O ([2]; 10 g sample + 10 g deionized water, Monel vessel, 150° C., 24 hours) [ppmw] | Average F concentration at room temperature ([2]; hydrolytic stability test, before aging) [ppmw] | Average F concentration after 24 hours at 100° C. ([3]; neat, no water, Monel vessel) [ppmw] | Average F concentration after 24 hours at 150° C. ([3]; neat, no water, Monel vessel) [ppmw] | Average F concentration at room temperature ([3]; thermal stability test, before aging) [ppmw] |
| --- | --- | --- | --- | --- | --- | --- | --- | --- | --- | --- | --- |
| FC(F)(F)C(F)(F)C(F)(F)C(F)(F)C(F)(F)C(F)(F)F [CE9] | essentially unchanged | 0.71 | 0.83 |  |  |  |  |  |  |  |  |
| O=S(=O)(C(F)(F)C(F)(F)F)C(F)(F)C(F)(F)F [Example 3, Perfluorodiethylsulfone] | essentially unchanged | 10.67 | 11.74 | no mortality or abnormal clinical observations | gained weight and were normal | greater than 10,000 ppm | 11.55 | <0.05 | <0.05 | 0.36 | <0.05 |

Source: US20210246886A1, “Fluorosulfones” (3M INNOVATIVE PROPERTIES COMPANY, priority 2018, published 2021)
